Test results from patent US9985214B2, “Monoamine compound, charge transport material, composition for charge transport film, organic electroluminescent element, organic EL display, and organic EL lighting” (Mitsubishi Chemical Corporation, priority 2009, dated 2018).

Tests used:
Assay type in all cases: physicochemical
[1] = Glass transition temperature of the compound
[2] = Measurement of solubility in m-xylene; set-up: key: +: The compound dissolved.; −: The compound remained undissolved, giving a suspension, or separated out as crystals in 12 hours
Text: <Measurement of Solubility in m-Xylene>
The compound I synthesized in [Synthesis of Compound I] above and the comparative compounds X-A and X-B represented by the following structural formulae were examined for solubility in m-xylene.

[3] = Dissolution of the compound in the composition for luminescent-layer formation / production of element; conditions: same procedure as Example 2, cyclohexylbenzene as solvent; production of an element was impossible
Method: Next, a composition for luminescent-layer formation which included compound C3 represented by the following formula and the compound II obtained in Synthesis Example as charge-transporting compounds, phosphorescent metal complex D2, and cyclohexylbenzene as a solvent was prepared. The concentrations of the compound C3, the compound II, and the phosphorescent metal complex D2 in the composition were 1.25% by mass, 3.75% by mass, and 0.7% by mass, respectively.
The same procedure as in Example 2 was conducted, except that the compound X-C was used in place of the compound II.

SMILES: c1ccc(-c2cccc(-c3ccc(N(c4ccc(-c5cccc(-n6c7ccccc7c7ccccc76)c5)cc4)c4ccc(-c5cccc(-n6c7ccccc7c7ccccc76)c5)cc4)cc3)c2)cc1 [X-B]
- Glass transition temperature [1]: 120 °C
- Solubility in m-xylene, Concentration 1.0 mass % [2]: −
- Solubility in m-xylene, Concentration 5.0 mass % [2]: −
- Solubility in m-xylene, Concentration 10 mass % [2]: −

SMILES: c1cc(-c2ccc(N(c3ccc(-c4cccc(-n5c6ccccc6c6ccccc65)c4)cc3)c3ccc(-c4cccc(-n5c6ccccc6c6ccccc65)c4)cc3)cc2)cc(-n2c3ccccc3c3ccccc32)c1 [X-A]
- Glass transition temperature [1]: 159 °C
- Solubility in m-xylene, Concentration 1.0 mass % [2]: +
- Solubility in m-xylene, Concentration 5.0 mass % [2]: −
- Solubility in m-xylene, Concentration 10 mass % [2]: −

SMILES: c1ccc(-c2ccc(-c3ccc(N(c4ccc(-c5cccc(-c6cccc7ccccc67)c5)cc4)c4ccc(-c5cccc(-n6c7ccccc7c7ccccc76)c5)cc4)cc3)cc2)cc1 [Compound X-C]
- behaviour of the compound after dissolution in the composition for luminescent-layer formation [3]: crystallized after dissolved

SMILES: c1ccc(-c2cccc(-c3ccc(N(c4ccc(-c5cccc(-c6cccc(-n7c8ccccc8c8ccccc87)c6)c5)cc4)c4ccc(-c5cccc(-n6c7ccccc7c7ccccc76)c5)cc4)cc3)c2)cc1 [Compound I]
- Glass transition temperature [1]: 127 °C
- Solubility in m-xylene, Concentration 1.0 mass % [2]: +
- Solubility in m-xylene, Concentration 5.0 mass % [2]: +
- Solubility in m-xylene, Concentration 10 mass % [2]: +
